# Data as given in ChEMBL document CHEMBL4402538, “Mycobacterial tryptophan biosynthesis: A promising target for tuberculosis drug development?” (Bioorg Med Chem Lett, 2019).
# How the values were obtained:
# [1] = test system: Mycobacterium tuberculosis; assay: Antimycobacterial activity against Mycobacterium tuberculosis in absence of tryptophan by Alamar Blue assay; format: functional
# [2] = test system: Mycobacterium tuberculosis; assay: Antitubercular activity against Mycobacterium tuberculosis infected in mouse assessed as reduction in bacterial load in infected mouse spleen at 200 mg/kg administered 8 days post infection and measured at 2 week relative to control; format: functional
# [3] = test system: Mycobacterium tuberculosis; assay: Antimycobacterial activity against pan-sensitive Mycobacterium tuberculosis AS2 incubated for 2 weeks; format: functional; settings: AS2, 336 h
# [4] = test system: Mycobacterium tuberculosis; assay: Antimycobacterial activity against pan-sensitive Mycobacterium tuberculosis AS4 incubated for 2 weeks; format: functional; settings: AS4, 336 h
# [5] = test system: Mycobacterium marinum; assay: Antimycobacterial activity against Mycobacterium marinum infected in zebra fish embryos assessed as reduction in bacterial growth at 15 to 30 uM incubated for 5 days relative to control; format: functional
# [6] = test system: Mycobacterium tuberculosis; assay: Antimycobacterial activity against pan-sensitive Mycobacterium tuberculosis CI-5 incubated for 2 weeks; format: functional; settings: CI-5, 336 h
# [7] = Intrinsic clearance in mouse liver microsomes at 1 uM in presence of NADPH measured up to 60 mins by LC-MS/MS analysis; format: ADME, Microsome; settings: read-out: CLH
# [8] = test system: Mycobacterium tuberculosis; assay: Antimycobacterial activity against pan-sensitive Mycobacterium tuberculosis CDC1551 incubated for 2 weeks; format: functional; settings: CDC1551, 336 h
# [9] = Cytotoxicity against human HepG2 cells; format: cell-based
# [10] = test system: Mycobacterium tuberculosis; assay: Antimycobacterial activity against pan-sensitive Mycobacterium tuberculosis CI-11 incubated for 2 weeks; format: functional; settings: CI-11, 336 h
# [11] = test system: Mycobacterium tuberculosis; assay: Antimycobacterial activity against pan-sensitive Mycobacterium tuberculosis CI-4 incubated for 2 weeks; format: functional; settings: CI-4, 336 h
# [12] = test system: Mycobacterium tuberculosis; assay: Antimycobacterial activity against wild-type Mycobacterium tuberculosis H37Rv incubated for 2 weeks; format: functional; settings: 336 h
# [13] = test system: Mycobacterium tuberculosis; assay: Antimycobacterial activity against wild-type Mycobacterium tuberculosis H37Rv infected in mouse J774 cells assessed as reduction in bacterial growth incubated for 3 days relative to control; format: functional
# [14] = test system: Mycobacterium tuberculosis; assay: Antimycobacterial activity against pan-sensitive Mycobacterium tuberculosis HN-878 incubated for 2 weeks; format: functional; settings: HN-878, 336 h
# [15] = Cytotoxicity against human HepG2 cells after 48 hrs by CellTiter Glo assay; format: cell-based
# [16] = Intrinsic clearance in mouse liver microsomes incubated for 30 mins and measured up to 30 mins by LC-MS/MS analysis; format: ADME, Microsome; settings: 0.5 h
# [17] = Cytotoxicity against human HepG2 cells after 24 hrs by CellTiter 96 AQueous One Solution Cell Proliferation assay; format: cell-based
# [18] = test system: Mycobacterium tuberculosis; assay: Antitubercular activity against Mycobacterium tuberculosis H37Rv infected in BALB/c mouse assessed as reduction in bacterial load in infected mouse spleen at 100 mg/kg, po administered 6 days per week for 4 weeks relative to control; format: functional
# [19] = Oral bioavailability in CD-1 mouse at 100 mg/kg measured up to 24 hrs; format: ADME, organism-based; settings: in vivo
# [20] = test system: Mycobacterium tuberculosis; assay: Antitubercular activity against Mycobacterium tuberculosis H37Rv ATCC 27294 after 10 days; format: functional; settings: H37Rv ATCC 27294, 240 h
# [21] = test system: Mycobacterium tuberculosis H37Rv; assay: Inhibition of Tryptophan synthase alpha in Mycobacterium tuberculosis H37Rv assessed as bactericidal activity incubated for 4 weeks by agar dilution method
# [22] = test system: Mycobacterium tuberculosis; assay: Antimycobacterial activity against Mycobacterium tuberculosis H37Rv infected in C57BL/6 mouse assessed as reduction in colony forming unit at 350 mg/kg, po administered for 8 consecutive days starting from day 1 post infection relative to control; format: functional
# [23] = test system: Mycobacterium tuberculosis; assay: Antitubercular activity against Mycobacterium tuberculosis H37Rv; format: functional
# [24] = test system: Mycobacterium tuberculosis; assay: Antimycobacterial activity against Mycobacterium tuberculosis H37Rv in presence of tryptophan after 14 days by broth microdilution method; format: functional; settings: 336 h
# [25] = Inhibition of Mycobacterium tuberculosis Anthranilate phosphoribosyltransferase expressed in Escherichia coli BL21(DE3) pRIL cells using PRPP as substrate in presence of PRAI-InGPS by fluorescence-based assay
smiles,measurement,setting,value
Nc1cccc(F)c1C(=O)O,MIC,[1],5 µM
same,fold change (FC),[2],10
Nc1ccc(F)cc1C(=O)O,MIC,[1],5 µM
N#C[C@@H]1N[C@@H](CO)[C@H]1c1ccc(-c2ccccc2F)cc1,MIC90,[3],3 µM
same,MIC90,[4],3 µM
same,log(activity),[5],1.5
same,MIC90,[6],3 µM
same,microsomal CLint at 1 µM,[7],336 µL/min/mg
same,MIC90,[8],3 µM
same,CC50,[9],> 100 µM
same,MIC90,[10],1.6 µM
same,MIC90,[11],1.6 µM
same,MIC90,[12],3 µM
same,fold change (FC),[13],8
same,MIC90,[14],3 µM
O=S1(=O)C[C@H](O)[C@@H](N2CCN(c3ccccc3Cl)CC2)C1,CC50 at 48 h,[15],> 50 µM
same,CLH,[16],15.7 mL/min/g
O=C(O)CCc1c[nH]c2ccccc12 [INDOLYLPROPIONIC ACID],CC50 at 24 h,[17],> 1000 µM
same,fold change (FC),[18],7
same,bioavailability,[19],30 to 33%
same,MIC50,[20],68 µM
CNS(=O)(=O)c1ccc2c(c1)CCN2C(=O)c1ccc(C)s1,CC50 at 48 h,[15],> 100 µM
same,CLH,[16],27.1 mL/min/g
NC(=O)c1ccc(CNC(=O)c2cc(-c3cccc(Cl)c3)on2)cc1,MIC,[21],6 µg/mL
O=S1(=O)C[C@H](O)[C@@H](N2CCN(c3ccc(F)cc3Cl)CC2)C1,log(activity),[22],1.4
same,CC50 at 48 h,[15],> 100 µM
same,CLH,[16],< 0.5 mL/min/g
same,MIC,[23],2.25 µM
Cc1cccc(NC(=O)COC(=O)CCc2c[nH]c3ccccc23)c1,MIC90,[24],< 64 µM
O=C(O)c1ccccc1Nc1ccccc1C(=O)O,Ki,[25],1.5 µM
CNS(=O)(=O)c1ccc2c(c1)CCN2C(=O)c1ccccc1F,CC50 at 48 h,[15],> 100 µM
same,CLH,[16],39.5 mL/min/g
O=S1(=O)C[C@H](O)[C@@H](N2CCC(c3ccccc3Cl)CC2)C1,CC50 at 48 h,[15],> 100 µM
same,CLH,[16],73.7 mL/min/g
same,MIC,[23],0.5 µM
